In test [1] the test system is Trypanosoma brucei rhodesiense STIB 900 bloodstream forms. Briefly: In vitro trypanocidal activity (Alamar Blue assay, 72 h). Type of test: cell-based. The note with it: for IC50: Trypanosoma brucei, 72 h, read-out: T.b.rhodesiense IC50; for SI: selectivity index (IC50 of L6 cells/ IC50 of T.b.rhodesiense): L6 cells versus T. b. rhodesiense. Here is the method: Minimum essential medium (50 μl) supplemented according to a standard method, with 2-mercaptoethanol and 15% heat inactivated horse serum was added to each well of a 96-well microtiter plate. Serial three-fold compound dilutions were prepared covering a range from 90 to 0.123 μg/ml. Then 10^4 bloodstream forms of Trypanosoma brucei rhodesiense STIB 900 (a clone of a population isolated in 1982 from a patient in Tanzania) in 50 μl culture medium were added to each well and the plate incubated at 37°C under a 5% CO2 atmosphere for 72 h. Ten microlitres of Alamar Blue (12.5 mg resazurin dissolved in 100 ml distilled water) were then added to each well and incubation continued for a further 2–4 h. The plate was then read in a Spectramax Gemini XS microplate fluorometer (Molecular Devices Cooperation, Sunnyvale, CA, USA) using an excitation wavelength of 536 nm and emission wavelength of 588 nm. Fluorescence development was measured and expressed as percentage of the control. Data were transferred into the graphic programme Softmax Pro (Molecular Devices) which calculated IC50 values. Melarsoprol was used as standard drug.
On the technique in general: The colour change of resazurin is a common sign of viable cells or microbes.

The next test concerns L6 cells. The test can be described thus: Cytotoxicity in rat skeletal myoblast cell line (L6 cells). The class given is cell-based. Here is the method:
Cytotoxicity was determined using a rat skeletal myoblast cell line (L6 cells). The culture medium was RPMI 1640 supplemented with L-glutamine 2 mM, HEPES 5.95 g/l, NaHCO3 2 g/l and 10% foetal bovine serum. Podophyllotoxin (Sigma-Aldrich) was used as the reference drug. The assay was performed following the antitrypanosomal assay protocol as described above. The IC50 values were calculated from the sigmoidal growth inhibition curves using Softmax Pro software (Molecular Devices Corp.). Tests were done in three independent experiments in duplicate.

[2] abbreviates: T. b. rhodesiense STIB 900 bloodstream forms, 72 h incubation, Alamar Blue.
The mark [3] stands for this setting: rat skeletal myoblast L6 cells, cytotoxicity, read-out: L6 Cells IC50.

Converted amounts (≈) assume the structure as drawn. Read-outs that look alike come from different tables or passages of the source.

As to “2-(3′,4′-dimethoxyphenyl)-7-hydroxychromen-4-one [Compound 7]”, in test [1] (setting [2]), the “T.b.rhodesiense IC50” value came out at 10.8 µg/mL. The “L6 Cells IC50” value with L6 cells (rat skeletal myoblast L6 cells, cytotoxicity) was 1.58 µg/mL.

On to `COc1cc(-c2oc3cc(O)cc(O)c3c(=O)c2OC)ccc1O` [Compound 2, 2-(5′-methoxyphenyl) 4′,5,7-trihydroxy-3-methoxychromen-4-one], for which the IC50 came to 12.3 µg/mL (≈ 37.2 µM) in test [1] (setting [2]) and 6.64 µg/mL (≈ 20.1 µM) in the test on L6 cells (setting [3]).

Consider `COc1cc2oc(-c3ccc(O)cc3)c(OC)c(=O)c2c(O)c1OC` [Compound 3, Penduletin], for which, in test [1] (setting [2]), the “T.b.rhodesiense IC50” value is 13.8 µg/mL. Moreover, the IC50 in the test on L6 cells (setting [3]) stood at 14 µg/mL (≈ 40.7 µM).

Regarding `COc1cc(O)c2c(=O)c(OC)c(-c3ccc(O)cc3)oc2c1` [Compound 4, 2-(4′-hydroxyphenyl)-5-hydroxy 3,7-dimethoxy chromen-4-one], in test [1], the “SI: selectivity index (IC50 of L6 cells/ IC50 of T.b.rhodesiense)” value is reported as 1.4. Moreover, the IC50 came out at 19.4 µg/mL (≈ 61.7 µM) in test [1] (setting [2]) and 28.2 µg/mL (≈ 89.7 µM) in the test with L6 cells (setting [3]).

As for `O=c1c(O)c(-c2ccc(O)cc2)oc2cc(O)cc(O)c12` [Compound 5, 2-(4-hydroxyphenyl)-3,5,7-trihydroxy chromen-4-one], the IC50 was determined as 23.7 µg/mL (≈ 82.8 µM) in test [1] (setting [2]) and 100 µg/mL (≈ 349 µM) in the test on L6 cells (setting [3]).

For the compound `COc1ccc(-c2oc3cc(OC)c(OC)c(O)c3c(=O)c2OC)cc1OC` [Compound 6, Artemetin], in test [1], the “SI: selectivity index (IC50 of L6 cells/ IC50 of T.b.rhodesiense)” value is recorded as 9.8. Besides, the IC50 came to 4.7 µg/mL (≈ 12.1 µM) in test [1] (setting [2]) and 46.2 µg/mL (≈ 119 µM) in the test with L6 cells (setting [3]).

In the case of `Nc1nc(N)nc(Nc2ccc([As]3SCC(CO)S3)cc2)n1` (stereo not shown) [Melarsoprol, reference compound], the IC50 in test [1] came out at 0.002 µg/mL.

Regarding `COc1cc([C@@H]2c3cc4c(cc3[C@H](O)[C@H]3COC(=O)[C@H]23)OCO4)cc(OC)c1OC` [Podophyllotoxin, reference compound], in the test on L6 cells (Rattus norvegicus, L6, read-out: L6 Cells IC50), the half-maximal inhibitory concentration (IC50) was 0.005 µg/mL (≈ 0.0121 µM).

As a reminder, the IC50 is the point on the concentration scale where inhibition reaches its midpoint.

The values are drawn from publication PMC4384300, “Evaluation of the in vitro trypanocidal activity of methylated flavonoid constituents of Vitex simplicifolia leaves” (BMC Complementary and Alternative Medicine, 2015).
